These results are taken from patent publication US20170283440A1, “CARM1 INHIBITORS AND USES THEREOF” (Epizyme, Inc., priority 2014, published 2017).

The structures appear in SMILES notation. Like-named read-outs stand apart in the source and are kept apart here.

The subject of test [1] is asymmetric di-methyl PABP1 in RKO cells. In words: RKO methylation assay (In Cell Western for asymmetric di-methyl PABP1). Type of test: cell-based. The following applies: 48 hours incubation, read-out: Cellular IC50. The text has this: RKO adherent cells were purchased from ATCC (American Type Culture Collection), Manassas, Va., USA. DMEM/Glutamax medium, penicillin-streptomycin, heat inactivated fetal bovine serum, 0.05% trypsin and D-PBS were purchased from Life Technologies, Grand Island, N.Y., USA. Odyssey blocking buffer, 800CW goat anti-rabbit IgG (H+L) antibody, and Licor Odyssey infrared scanner were purchased from Licor Biosciences, Lincoln, Nebr., USA. Asymmetric di-methyl PABP1 antibody was purchased from Cell Signaling Technology, Danvers, Mass., USA. Methanol was purchased from VWR, Franklin, Mass., USA. 10% Tween 20 was purchased from KPL, Inc., Gaithersburg, Md., USA. Paraformaldehyde (PFA) was purchased from EM Sciences. DRAQ5 was purchased from Biostatus Limited, Leicestershire, UK.
RKO adherent cells were maintained in growth medium (DMEM/Glutamax medium supplemented with 10% v/v heat inactivated fetal bovine serum and 100 units/mL penicillin-streptomycin) and cultured at 37° C. under 5% CO2.
Compound (100 nL) from a 96-well source plate was added directly to 384 well cell plate. Plates were incubated at 37° C., 5% CO2 for 48 hours. After two days of incubation, plates were brought to room temperature outside of the incubator for ten minutes and blotted on paper towels to remove cell media. Cells were fixed for 20 minutes at room temperature by adding 50 ul of 8% PFA followed by aspiration of supernatant with the Biotek EL406 plate washer. Cells were then permeabilized by addition of 50 μL of ice cold 100% methanol directly to each well and incubated for 30 min at room temperature. After 30 min, plates were transferred to a Biotek EL406 plate washer and washed 2 times with 100 μL per well of wash buffer (IX PBS). Next 60 μL per well of Odyssey blocking buffer (Odyssey Buffer with 0.1% Tween 20 (v/v)) were added to each plate and incubated 1 hour at room temperature. Blocking buffer was removed and 20 μL per well of primary antibody was added (asymmetric-methyl PABP1) diluted 1:400 in Odyssey buffer with 0.1% Tween 20 (v/v)) and plates were incubated overnight (16 hours) at 4° C. Plates were washed 5 times with 100 μL per well of wash buffer. Next 20 μL per well of secondary antibody was added (1:800 800CW goat anti-rabbit IgG (H+L) antibody, 1:2000 DRAQ5 in Odyssey buffer with 0.1% Tween 20 (v/v)) and incubated for 1 hour at room temperature. The plates were washed 5 times with 100 μL per well wash buffer then 2 times with 100 μL per well of water. Plates were allowed to dry at room temperature then imaged on the Licor Odyssey machine which measures integrated intensity at 700 nm and 800 nm wavelengths. Both 700 and 800 channels were scanned.
First, the ratio for each well was determined by:
Each plate included fourteen control wells of DMSO only treatment (minimum inhibition) as well as fourteen control wells for maximum inhibition treated with 20 μM of a reference compound. The average of the ratio values for each control type was calculated and used to determine the percent […] for each test well in the plate. Reference compound was serially diluted three-fold in DMSO for a total of nine test concentrations, beginning at 20 μM.
Percent inhibition was determined and IC50 curves were generated using triplicate wells per concentration of compound.

Test [2] has as its target T1, Human CARM1 (PRMT4) (Homo sapiens, UniProt Q86X55).
T1 construct: Flag-CARM1-His was eluted with 200 ug/ml FLAG peptide in buffer A; made in house; host or cells: HEK 293F cells infected with recombinant baculovirus (pFastBacMam)
Put plainly: CARM1 enzyme assay on peptide substrate (3H-SAM Flashplate). Type of test: biochemical. The following applies: CARM1 0.25 nM, 3H-SAM 30 nM, peptide 250 nM; read-out: Biochem IC50. From the text:
S-adenosylmethionine (SAM), S-adenosylhomocysteine (SAH), bicine, Tween20, dimethylsulfoxide (DMSO), bovine skin gelatin (BSG), sodium butyrate and Tris(2-carboxyethyl)phosphine hydrochloride solution (TCEP) were purchased from Sigma-Aldrich at the highest level of purity possible. ^3H-SAM was purchase from American Radiolabeled Chemicals with a specific activity of 80 Ci/mmol. 384-well streptavidin Flashplates were purchased from PerkinElmer.
Peptide representative of human histone H3 residues 16-30 was synthesized with an N-terminal linker-affinity tag motif and a C-terminal amide cap by 21st Century Biochemicals. The peptide was purified by high-performance liquid chromatography (HPLC) to greater than 95% purity and confirmed by liquid chromatography mass spectrometry (LC-MS). The sequence was Biot-Ahx-[…]-amide and contained a monomethylated arginine at position 26 (SEQ ID NO.:1).
Human CARM1 (PRMT4) (NM_199141.1) transcript clone was amplified from an HEK 293 cDNA library, incorporating a flanking 5′ sequence encoding a FLAG tag ([…]) (SEQ ID NO.:2) fused directly to Ala 2 of CARM1 and 3′ sequence encoding a hexa His sequence ([…]) (SEQ ID NO.:3) fused directly to Ser 608. The gene sequence encoding isoform1 containing a deletion of amino acids 539-561 was amplified subsequently and subcloned into pFastBacMam (Viva Biotech).
Recombinant baculovirus were generated according to Bac-to-Bac kit instructions (Life Technologies). Protein over-expression was accomplished by infecting exponentially growing HEK 293F cell culture at 1.3×10^6 cell/ml with virus (MOI=10) in the presence of 8 mM sodium butyrate. Infections were carried out at 37° C. for 48 hours, harvested by centrifugation, and stored at −80° C. for purification.
Column was washed with 500 mM NaCl in buffer A and Flag-CARM1-His was eluted with 200 ug/ml FLAG peptide in buffer A. Pooled fractions were dialyzed in 20 mM Tris, 150 mM NaCl, 5% glycerol and 1 mM DTT, pH 7.8. The purity of recovered protein was 94.
The assays were all performed in a buffer consisting of 20 mM Bicine (pH=7.6), 1 mM TCEP, 0.005% BSG, and 0.002% Tween 20, prepared on the day of use. Compounds in 100% DMSO (1 ul) were spotted into a polypropylene 384-well V-bottom plates (Greiner) using a Platemate Plus outfitted with a 384-channel head (Thermo Scientific). DMSO (1 ul) was added to Columns 11, 12, 23, 24, rows A-H for the maximum signal control and 1 ul of SAH, a known product and inhibitor of CARM1, was added to columns 11, 12, 23, 24, rows I—P for the minimum signal control. A cocktail (40 ul) containing the CARM1 enzyme was added by Multidrop Combi (Thermo-Fisher). The compounds were allowed to incubate with CARM1 for 30 min at room temperature, then a cocktail (10 ul) containing ^3H-SAM and peptide was added to initiate the reaction (final volume=51 ul). The final concentrations of the components were as follows: CARM1 was 0.25 nM, ^3H-SAM was 30 nM, peptide was 250 nM, SAH in the minimum signal control wells was 1 mM, and the DMSO concentration was 2%. The assays were stopped by the addition of non-radiolabeled SAM (10 ul) to a final concentration of 300 uM, which dilutes the ^3H-SAM to a level where its incorporation into the peptide substrate is no longer detectable. 50 ul of the reaction in the 384-well polypropylene plate was then transferred to a 384-well Flashplate and the biotinylated peptides were allowed to bind to the streptavidin surface for at least 1 hour before being washed once with 0.1% Tween20 in a Biotek ELx405 plate washer. The plates were then read in a PerkinElmer TopCount plate reader to measure the quantity of ^3H-labeled peptide bound to the Flashplate surface, measured as disintegrations per minute (dpm) or alternatively, referred to as counts per minute (cpm).
where dpm=disintegrations per minute, cmpd=signal in assay well, and min and max are the respective minimum and maximum signal controls. […]

T1 sequence (Q86X55 other isoform, or with tags, fused parts or gaps): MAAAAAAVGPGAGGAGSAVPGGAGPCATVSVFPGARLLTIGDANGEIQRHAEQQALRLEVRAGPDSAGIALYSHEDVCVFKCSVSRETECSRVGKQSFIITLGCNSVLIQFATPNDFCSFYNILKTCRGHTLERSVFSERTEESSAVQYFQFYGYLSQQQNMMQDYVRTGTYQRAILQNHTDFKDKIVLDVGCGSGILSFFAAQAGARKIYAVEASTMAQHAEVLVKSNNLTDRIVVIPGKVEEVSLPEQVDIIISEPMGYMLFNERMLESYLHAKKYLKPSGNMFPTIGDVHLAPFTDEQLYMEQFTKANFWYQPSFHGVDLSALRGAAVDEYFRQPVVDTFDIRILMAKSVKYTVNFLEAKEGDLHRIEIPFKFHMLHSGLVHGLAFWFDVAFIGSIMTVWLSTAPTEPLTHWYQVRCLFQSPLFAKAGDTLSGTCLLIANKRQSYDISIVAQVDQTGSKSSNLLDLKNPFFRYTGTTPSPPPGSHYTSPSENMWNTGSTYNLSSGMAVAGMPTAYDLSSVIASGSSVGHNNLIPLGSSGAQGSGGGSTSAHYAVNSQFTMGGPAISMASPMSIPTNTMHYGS

`Cc1nn(C(C)C)c2nc(-c3cccc(OCC(O)CN)c3)cc(N3CCOCC3)c12` (stereo not shown) [Example 1-2]: the IC50 was 10 to 20 µM in test [1] (Homo sapiens) and less than 0.1 µM in test [2]. The matching figures for `CNCC(O)COc1cccc(-c2cc(C(=O)NCc3c(C)cc(C)[nH]c3=O)c3cnn(C(C)C)c3n2)c1` (stereo not shown) [Example 1-3]: greater than 20 µM and less than 0.1 µM. Consider `CCOC(=O)c1c(-c2cccc(OCC(O)CNC)c2)nc2c(cnn2C(C)C)c1N1CCOCC1` (stereo not shown) [Example 1-5], for which the IC50 was greater than 20 µM in test [1] (Homo sapiens) and 0.1 to 1 µM in test [2]. `CNCC(O)COc1cc(OC)cc(-c2cc(-c3cnc4[nH]ccc4c3)n3ncc(C(C)C)c3n2)c1` (stereo not shown) [Example 1-6]: the values for the IC50 in test [1] (Homo sapiens) and in test [2] were greater than 20 µM and less than 0.1 µM, respectively.

Regarding `CNCC(O)COc1cc(OC)cc(-c2cc(-c3cnc4[nH]ccc4c3)nc3c(C(C)C)cnn23)c1` (stereo not shown) [Example 1-7], the values for the IC50 in test [1] (Homo sapiens) and in test [2] were greater than 20 µM and less than 0.1 µM, respectively. On to `CC(C)n1ncc2c(N3CCOCC3)cc(-c3cccc(OC[C@H](O)CN)c3)nc21` [Example 1-8], for which the figures for the IC50 in test [1] (Homo sapiens) and in test [2] were 10 to 20 µM and less than 0.1 µM, respectively. With `CNCC(O)COc1cc(Cl)cc(-c2cc(N(C)C3CCOCC3)n3ncc(C4CC4)c3n2)c1` (stereo not shown) [Example 1-9], the 50% inhibitory concentration (IC50) is greater than 20 µM in test [1] (Homo sapiens) and less than 0.1 µM in test [2].

`CNCC(O)COc1cccc(-c2cc(NC3CCOCC3)c3c(C4CC4)nn(C(C)C)c3n2)c1` (stereo not shown) [Example 2-2]: the IC50 was greater than 20 µM in test [1] (Homo sapiens) and less than 0.1 µM in test [2]. Turning to `CNCC(O)COc1cc(Cl)cc(-c2cc(NC3CCOCC3)c3cnn(C(C)C)c3n2)c1` (stereo not shown) [Example 2-4], the IC50 in test [1] (Homo sapiens) is greater than 20 µM; in test [2], less than 0.1 µM. `CNCC(O)COc1cc(OC)cc(-c2cc(N(C)C3CCOCC3)n3ncc(C(C)C)c3n2)c1` (stereo not shown) [Example 2-6]: the IC50 is 5 to 10 µM in test [1] (Homo sapiens) and less than 0.1 µM in test [2]. Consider `CNCC(O)COc1cc(Cl)cc(-c2cc(-c3cc[nH]n3)nc3c(C(C)C)cnn23)c1` (stereo not shown) [Example 2-7], for which the values for the IC50 in test [1] (Homo sapiens) and in test [2] were greater than 20 µM and less than 0.1 µM, respectively. For `Cc1cc(C)c(CNC(=O)c2cc(-c3cccc(OCC(O)CN)c3)nc3c2cnn3C(C)C)c(=O)[nH]1` (stereo not shown) [Example 2-8], the IC50 in test [1] (Homo sapiens) is greater than 20 µM; in test [2] it was less than 0.1 µM.

Take `CNCC(O)COc1cc(OC)cc(-c2cc(N(C)C3CCOCC3)n3ncc(C4CC4)c3n2)c1` (stereo not shown) [Example 2-9]: the values for the IC50 in test [1] (Homo sapiens) and in test [2] were greater than 20 µM and less than 0.1 µM, respectively. Take `CNCC(O)COc1cccc(-c2cc(N3CCOCC3)c3c(C)nn(C(C)C)c3n2)c1` (stereo not shown) [Example 3-2]: the values for the IC50 in test [1] (Homo sapiens) and in test [2] were 10 to 20 µM and less than 0.1 µM, respectively. `CC(C)n1ncc2c(C(=O)NCC3CCOCC3)cc(-c3cccc(OCC(O)CN)c3)nc21` (stereo not shown) [Example 3-3]: the values for the IC50 in test [1] (Homo sapiens) and in test [2] were greater than 20 µM and 0.1 to 1 µM, respectively. Consider `CNCC(O)COc1cc(OC)cc(-c2cc(N(C)c3cncnc3)c3cnn(C(C)C)c3n2)c1` (stereo not shown) [Example 3-4], for which the IC50 was 10 to 20 µM in test [1] (Homo sapiens) and less than 0.1 µM in test [2].

As to `CNCC(O)COc1cccc(-c2nc(NC3CCOCC3)c3cnn(C(C)(C)C)c3n2)c1` (stereo not shown) [Example 3-5], the IC50 is 5 to 10 µM in test [1] and less than 0.1 µM in test [2]. Consider `CNCC(O)COc1cccc(-c2cc(N(C)[C@H]3CCOC3)n3ncc(C(C)C)c3n2)c1` (stereo partly shown) [Example 14-6], for which the IC50 in test [2] was less than 0.1 µM. On to `CNCC(O)COc1cccc(-c2cc(N(C)C3CCOCC3)n3ncc(C(C)(C)C)c3n2)c1` (stereo not shown) [Example 16-8], for which the IC50 in test [2] is less than 0.1 µM. `CNCC(O)COc1cc(OC)cc(-c2cc(N(C)C3CCOCC3)n3ncc(C4CC4)c3n2)c1` (stereo not shown) [Example 44-6]: the IC50 in test [2] was less than 0.1 µM. As for `CNCC(O)COc1cccc(-c2cc(NCCCCNC(=O)c3ccn(C)n3)c3cnn(C(C)C)c3n2)c1` (stereo not shown) [Example 62-1], in test [1] (Homo sapiens), the IC50 was greater than 20 µM. Regarding `CNCC(O)COc1cccc(-c2cc(NCCCCCNC(=O)c3cccnc3)c3cnn(C(C)C)c3n2)c1` (stereo not shown) [Example 63-1], the IC50 in test [1] (Homo sapiens) was greater than 20 µM.

Regarding `CNCC(O)COc1cccc(-c2cc(NCCCCCCNC(=O)c3cccnc3)c3cnn(C(C)C)c3n2)c1` (stereo not shown) [Example 65-1], the IC50 in test [1] (Homo sapiens) was in the range of 10 to 20 µM.
